Several values for one entry are separate records, joined by “and”; a condition that tells them apart may be missing. Equal entries are not always repeated.
Details: Liquid, Calculated from knudsen effusion weight loss

Nc1ccnc(N)n1 [2,4-pyrimidinediamine]
Details | vapor or sublimation pressure
335.12 K | 7.78e-05 kPa and 7.75e-05 kPa and 7.72e-05 kPa
338.18 K | 0.000109 kPa and 0.00011 kPa and 0.000105 kPa
341.17 K | 0.00015 kPa and 0.000145 kPa and 0.000141 kPa
344.12 K | 0.000208 kPa and 0.000202 kPa and 0.000212 kPa
347.17 K | 0.000291 kPa and 0.000283 kPa and 0.000274 kPa
350.17 K | 0.000391 kPa and 0.000378 kPa
353.12 K | 0.000554 kPa and 0.000535 kPa and 0.000532 kPa
356.18 K | 0.00074 kPa and 0.000736 kPa and 0.000697 kPa
359.16 K | 0.000989 kPa and 0.000945 kPa and 0.000904 kPa

Nc1cc(N)nc(N)n1 [2,4,6-pyrimidinetriamine]
Details | vapor or sublimation pressure
391.14 K | 7.42e-05 kPa and 7.31e-05 kPa and 7.14e-05 kPa
393.15 K | 9.48e-05 kPa and 8.89e-05 kPa and 8.51e-05 kPa
395.15 K | 0.00011 kPa and 0.000107 kPa and 0.0001 kPa
397.13 K | 0.000131 kPa and 0.000124 kPa and 0.000141 kPa
399.13 K | 0.000167 kPa and 0.000166 kPa and 0.000148 kPa
401.15 K | 0.0002 kPa and 0.000188 kPa and 0.000186 kPa
403.15 K | 0.000247 kPa and 0.000237 kPa and 0.000215 kPa
405.15 K | 0.000292 kPa and 0.000287 kPa and 0.000258 kPa
407.15 K | 0.000345 kPa and 0.000316 kPa and 0.000319 kPa
409.12 K | 0.000393 kPa and 0.000407 kPa and 0.000375 kPa
411.12 K | 0.000484 kPa and 0.000487 kPa and 0.000439 kPa
413.15 K | 0.000593 kPa and 0.00054 kPa and 0.000536 kPa
